According to a compilation of properties of binary mixtures (doi:10.1007/s10953-005-5594-7):

Test: xn = mol fraction of the nth substance listed
Settings: 298.15 K, 101.3 kPa

CCC(C)=O + CCCC[n+]1ccn(C)c1.F[P-](F)(F)(F)(F)F
Settings | viscosity [mPa·s]
x1 = 1 | 0.388

CCOC(C)=O + CCCC[n+]1ccn(C)c1.F[P-](F)(F)(F)(F)F
Settings | viscosity [mPa·s]
x1 = 1 | 0.439

CCCC[n+]1ccn(C)c1.F[P-](F)(F)(F)(F)F + CCC(=O)CC
Settings | viscosity [mPa·s]
x2 = 0 | 270

O=C1CCCC1 + CCCC[n+]1ccn(C)c1.F[P-](F)(F)(F)(F)F
Settings | viscosity [mPa·s]
x1 = 0.1883 | 114.8
x1 = 0.4475 | 33.04
x1 = 0.5025 | 24.71
x1 = 0.6034 | 14.52
x1 = 0.6502 | 11.01
x1 = 0.7011 | 7.89
x1 = 0.8041 | 4.19
x1 = 0.8982 | 2.274
x1 = 0.9518 | 1.566
x1 = 1 | 1.074

CCCC[n+]1ccn(C)c1.F[P-](F)(F)(F)(F)F + CCOC(C)=O
Settings | viscosity [mPa·s]
x2 = 0 | 270
x2 = 0.0937 | 149
x2 = 0.1914 | 87.9
x2 = 0.2918 | 48.2
x2 = 0.3944 | 27.52
x2 = 0.4485 | 20.54
x2 = 0.4967 | 16.16
x2 = 0.5529 | 11.52
x2 = 0.6039 | 8.45
x2 = 0.7092 | 4.21
x2 = 0.8037 | 2.208
x2 = 0.898 | 1.083
x2 = 0.9504 | 0.699

CCCC[n+]1ccn(C)c1.F[P-](F)(F)(F)(F)F + CC(C)=O
Settings | viscosity [mPa·s]
x2 = 0 | 270
x2 = 0.1147 | 137
x2 = 0.198 | 84.8
x2 = 0.2923 | 46.7
x2 = 0.4035 | 24
x2 = 0.4993 | 13.41
x2 = 0.5495 | 9.68
x2 = 0.6519 | 4.99
x2 = 0.6989 | 3.69
x2 = 0.8956 | 0.81
x2 = 0.9481 | 0.516

CC(C)=O + CCCC[n+]1ccn(C)c1.F[P-](F)(F)(F)(F)F
Settings | viscosity [mPa·s]
x1 = 1 | 0.316

CCC(=O)CC + CCCC[n+]1ccn(C)c1.F[P-](F)(F)(F)(F)F
Settings | viscosity [mPa·s]
x1 = 0.1088 | 137
x1 = 0.3986 | 24.26
x1 = 0.4491 | 17.94
x1 = 0.5503 | 10.02
x1 = 0.601 | 7.37
x1 = 0.6983 | 4.03
x1 = 0.8007 | 2.022
x1 = 0.9019 | 0.972
x1 = 0.948 | 0.69
x1 = 1 | 0.458

CCCC[n+]1ccn(C)c1.F[P-](F)(F)(F)(F)F + CCC(C)=O
Settings | viscosity [mPa·s]
x2 = 0 | 270
x2 = 0.0995 | 145
x2 = 0.2007 | 81.6
x2 = 0.5002 | 13.55
x2 = 0.5506 | 9.82
x2 = 0.5988 | 7.27
x2 = 0.7023 | 3.701
x2 = 0.8004 | 1.861
x2 = 0.9027 | 0.861
x2 = 0.9487 | 0.606
